Measurements: PubChem BioAssay (NCI)
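Tested at 5 concentrations; 48 h exposure; 96-well plates; endpoints linearly interpolated, else capped at highest concentration. At the GI50, growth is halved. TGI marks complete inhibition of growth.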

How the values were obtained:
Assay in all cases: DTP human tumour cell line panel, 48 h
[1] = system: BT-549 breast
[2] = system: COLO 205 colon
[3] = system: SK-MEL-28 melanoma
[4] = system: EKVX NSCLC
[5] = system: T-47D breast
[6] = system: HS 578T breast
[7] = system: A549 NSCLC
[8] = system: MDA-MB-231 breast
[9] = system: SF-295 CNS
[10] = system: SN12C renal
[11] = system: M14 melanoma
[12] = system: K-562 leukemia
[13] = system: UACC-257 melanoma
[14] = system: OVCAR-4 ovarian
[15] = system: HT29 colon
[16] = system: MOLT-4 leukemia
[17] = system: NCI-H460 lung
[18] = system: MDA-MB-435
[19] = system: OVCAR-3 ovarian
[20] = system: 786-0 renal
[21] = system: HOP-92 NSCLC
[22] = system: KM12 colon
[23] = system: OVCAR-8 ovarian
[24] = system: SNB-19 CNS
[25] = system: CCRF-CEM leukemia
[26] = system: NCI-H23 lung
[27] = system: UACC-62 melanoma
[28] = system: RPMI-8226 leukemia
[29] = system: HL-60(TB) leukemia
[30] = system: NCI-H226 lung
[31] = system: U251 CNS
[32] = system: SR leukemia
[33] = system: LOX IMVI melanoma
[34] = system: TK-10 renal
[35] = system: HCT-15 colon
[36] = system: HOP-62 NSCLC
[37] = system: HCC-2998 colon
[38] = system: DU-145 prostate
[39] = system: SF-539 CNS
[40] = system: ACHN renal
[41] = system: CAKI-1 renal
[42] = system: RXF 393 renal
[43] = system: PC-3 prostate
[44] = system: IGROV1 ovarian
[45] = system: A498 renal
[46] = system: SF-268 CNS
[47] = system: UO-31 renal
[48] = system: SNB-75 CNS
[49] = system: NCI-H522 lung
[50] = system: HCT-116 colon
[51] = system: SK-MEL-2 melanoma
[52] = system: NCI/ADR-RES ovarian
[53] = system: SK-OV-3 ovarian
[54] = system: MCF7 breast
[55] = system: OVCAR-5 ovarian
[56] = system: SW-620 colon
[57] = system: SK-MEL-5 melanoma
[58] = system: MALME-3M melanoma

**Q.** How did the GI50 [1] turn out when `CCCC(=O)NC(c1ccc2c(c1)OC(F)(F)O2)c1cc(C)c2cccnc2c1O` (centres undefined) was run?
**A.** 918 nM

**Q.** And the TGI [1]?
**A.** > 100000 nM

**Q.** What about the GI50 [2] of the same compound?
**A.** 1260 nM

**Q.** And the TGI [2]?
**A.** > 100000 nM

**Q.** What about the GI50 [3] of the same compound?
**A.** 637 nM

**Q.** What about the TGI [3] of the same compound?
**A.** > 100000 nM

**Q.** What about the GI50 [4] of the same compound?
**A.** 987 nM

**Q.** And the TGI [4]?
**A.** > 100000 nM

**Q.** And the GI50 [5]?
**A.** 504 nM

**Q.** What about the TGI [5] of the same compound?
**A.** > 100000 nM

**Q.** What about the GI50 [6] of the same compound?
**A.** 2190 nM

**Q.** And the TGI [6]?
**A.** > 100000 nM

**Q.** What about the GI50 [7] of the same compound?
**A.** 993 nM

**Q.** What about the TGI [7] of the same compound?
**A.** > 100000 nM

**Q.** And the GI50 [8]?
**A.** 565 nM

**Q.** What about the TGI [8] of the same compound?
**A.** > 100000 nM

**Q.** What about the GI50 [9] of the same compound?
**A.** 691 nM

**Q.** And the TGI [9]?
**A.** > 100000 nM

**Q.** And the GI50 [10]?
**A.** 886 nM

**Q.** And the TGI [10]?
**A.** > 100000 nM

**Q.** What about the GI50 [11] of the same compound?
**A.** 532 nM

**Q.** And the TGI [11]?
**A.** 3820 nM

**Q.** And the GI50 [12]?
**A.** 367 nM

**Q.** What about the TGI [12] of the same compound?
**A.** > 100000 nM

**Q.** And the GI50 [13]?
**A.** 1300 nM

**Q.** What about the TGI [13] of the same compound?
**A.** > 28900 nM

**Q.** And the GI50 [14]?
**A.** 446 nM

**Q.** And the TGI [14]?
**A.** > 100000 nM

**Q.** What about the GI50 [15] of the same compound?
**A.** 492 nM

**Q.** What about the TGI [15] of the same compound?
**A.** > 100000 nM

**Q.** What about the GI50 [16] of the same compound?
**A.** 397 nM

**Q.** And the TGI [16]?
**A.** > 100000 nM

**Q.** What about the GI50 [17] of the same compound?
**A.** 421 nM

**Q.** What about the TGI [17] of the same compound?
**A.** > 100000 nM

**Q.** What about the GI50 [18] of the same compound?
**A.** 1090 nM

**Q.** What about the TGI [18] of the same compound?
**A.** > 100000 nM

**Q.** And the GI50 [19]?
**A.** 437 nM

**Q.** What about the TGI [19] of the same compound?
**A.** > 100000 nM

**Q.** And the GI50 [20]?
**A.** 702 nM

**Q.** What about the TGI [20] of the same compound?
**A.** > 34500 nM

**Q.** And the GI50 [21]?
**A.** 296 nM

**Q.** What about the TGI [21] of the same compound?
**A.** 33400 nM

**Q.** What about the GI50 [22] of the same compound?
**A.** 793 nM

**Q.** What about the TGI [22] of the same compound?
**A.** > 100000 nM

**Q.** What about the GI50 [23] of the same compound?
**A.** 406 nM

**Q.** And the TGI [23]?
**A.** > 100000 nM

**Q.** And the GI50 [24]?
**A.** 825 nM

**Q.** And the TGI [24]?
**A.** > 100000 nM

**Q.** What about the GI50 [25] of the same compound?
**A.** 443 nM

**Q.** And the TGI [25]?
**A.** > 100000 nM

**Q.** What about the GI50 [26] of the same compound?
**A.** 669 nM

**Q.** What about the TGI [26] of the same compound?
**A.** > 100000 nM

**Q.** What about the GI50 [27] of the same compound?
**A.** 275 nM

**Q.** What about the TGI [27] of the same compound?
**A.** 1970 nM

**Q.** What about the GI50 [28] of the same compound?
**A.** 727 nM

**Q.** What about the TGI [28] of the same compound?
**A.** > 100000 nM

**Q.** What about the GI50 [29] of the same compound?
**A.** 391 nM

**Q.** And the TGI [29]?
**A.** > 100000 nM

**Q.** And the GI50 [30]?
**A.** 544 nM

**Q.** What about the TGI [30] of the same compound?
**A.** > 22800 nM

**Q.** What about the GI50 [31] of the same compound?
**A.** 473 nM

**Q.** And the TGI [31]?
**A.** > 84600 nM

**Q.** What about the GI50 [32] of the same compound?
**A.** 436 nM

**Q.** What about the TGI [32] of the same compound?
**A.** > 100000 nM

**Q.** And the GI50 [33]?
**A.** 451 nM

**Q.** And the TGI [33]?
**A.** > 33400 nM

**Q.** What about the GI50 [34] of the same compound?
**A.** 1990 nM

**Q.** And the TGI [34]?
**A.** > 100000 nM

**Q.** What about the GI50 [35] of the same compound?
**A.** 353 nM

**Q.** What about the TGI [35] of the same compound?
**A.** > 100000 nM

**Q.** What about the GI50 [36] of the same compound?
**A.** 592 nM

**Q.** And the TGI [36]?
**A.** > 100000 nM

**Q.** And the GI50 [37]?
**A.** 780 nM

**Q.** What about the TGI [37] of the same compound?
**A.** > 100000 nM

**Q.** And the GI50 [38]?
**A.** 1780 nM

**Q.** And the TGI [38]?
**A.** > 100000 nM

**Q.** What about the GI50 [39] of the same compound?
**A.** 666 nM

**Q.** And the TGI [39]?
**A.** 12000 nM

**Q.** What about the GI50 [40] of the same compound?
**A.** 406 nM

**Q.** And the TGI [40]?
**A.** > 36600 nM

**Q.** And the GI50 [41]?
**A.** 438 nM

**Q.** And the TGI [41]?
**A.** 21400 nM

**Q.** And the GI50 [42]?
**A.** 3170 nM

**Q.** And the TGI [42]?
**A.** > 47300 nM

**Q.** And the GI50 [43]?
**A.** 651 nM

**Q.** What about the TGI [43] of the same compound?
**A.** > 100000 nM

**Q.** What about the GI50 [44] of the same compound?
**A.** 453 nM

**Q.** What about the GI50 [45] of the same compound?
**A.** > 74700 nM

**Q.** What about the TGI [45] of the same compound?
**A.** > 100000 nM

**Q.** What about the GI50 [46] of the same compound?
**A.** 690 nM

**Q.** And the TGI [46]?
**A.** > 100000 nM

**Q.** What about the GI50 [47] of the same compound?
**A.** 218 nM

**Q.** And the GI50 [48]?
**A.** 685 nM

**Q.** What about the TGI [48] of the same compound?
**A.** 8430 nM

**Q.** What about the GI50 [49] of the same compound?
**A.** 326 nM

**Q.** What about the TGI [49] of the same compound?
**A.** > 32300 nM

**Q.** What about the GI50 [50] of the same compound?
**A.** 509 nM

**Q.** What about the TGI [50] of the same compound?
**A.** > 100000 nM

**Q.** What about the GI50 [51] of the same compound?
**A.** 1280 nM

**Q.** And the TGI [51]?
**A.** > 68700 nM

**Q.** What about the GI50 [52] of the same compound?
**A.** 290 nM

**Q.** What about the TGI [52] of the same compound?
**A.** 4820 nM

**Q.** What about the GI50 [53] of the same compound?
**A.** 510 nM

**Q.** And the TGI [53]?
**A.** > 67500 nM

**Q.** And the GI50 [54]?
**A.** 419 nM

**Q.** What about the TGI [54] of the same compound?
**A.** > 100000 nM

**Q.** And the GI50 [55]?
**A.** 1730 nM

**Q.** And the TGI [55]?
**A.** > 100000 nM

**Q.** What about the GI50 [56] of the same compound?
**A.** 695 nM

**Q.** What about the TGI [56] of the same compound?
**A.** > 100000 nM

**Q.** What about the GI50 [57] of the same compound?
**A.** 714 nM

**Q.** And the TGI [57]?
**A.** 2350 nM

**Q.** And the GI50 [58]?
**A.** 1080 nM

**Q.** And the TGI [58]?
**A.** > 26700 nM
